Test: Solubility of the compound in water at room temperature
Format: physicochemical
Details: room temperature (25° C.)
Procedure: 23.5 g of perfluoro(3-dibutylaminopropionic acid) was neutralized with 1.5 g of calcium hydroxide in a methanol/water mixed solution. The precipitated crystals were separated by filtration, and dried at 100° C., whereby 23.5 g of perfluoro(3-dibutylaminopropionic acid) calcium represented by the following formula (376) was obtained (yield of 97%). The solubility of the present compound in water at room temperature (25° C.) was 2 [g/100 g-H2O].
15.0 g of perfluoro(3-dibutylaminopropionic acid) obtained in the same manner as in Synthesis Example 1 was neutralized with 1.2 g of magnesium hydroxide in a methanol/water mixed solution. Next, the precipitated crystals were separated by filtration, and by extracting with methanol, a magnesium salt was obtained. The methanol was distilled off, whereby 14.4 g of perfluoro(3-dibutylaminopropionic acid) magnesium represented by the following formula (379) was obtained (yield of 94%). The solubility of the present compound in water at room temperature was 0.009 [g/100 g-H2O].
15.0 g of perfluoro(3-dibutylaminopropionic acid) obtained in the same manner as in Synthesis Example 1 was neutralized with 4.0 g of barium hydroxide octahydrate in a methanol/water mixed solution. […]

SMILES	solubility of the present compound in water [g/100 g-H2O]
O=C(O)C(F)(F)C(F)(F)N(C(F)(F)C(F)(F)C(F)(F)C(F)(F)F)C(F)(F)C(F)(F)C(F)(F)C(F)(F)F.[Ba] [Synthesis Example 5, perfluoro(3-dibutylaminopropionic acid) barium]	0.04
O=C(O)C(F)(F)C(F)(F)N(C(F)(F)C(F)(F)C(F)(F)C(F)(F)F)C(F)(F)C(F)(F)C(F)(F)C(F)(F)F.[Mg] [Synthesis Example 4, perfluoro(3-dibutylaminopropionic acid) magnesium]	0.009

Reference: patent publication US10208210B2, “Hydrophilic oil repellent and production method of same, surface coating material, coating film, resin composition, oil-water separation filter material, and porous body” (MITSUBISHI MATERIALS CORPORATION, priority 2014, dated 2019)
